Here are results for 19 molecules from US8063055B2, “Substituted pyridone compounds and methods of use” (Amgen Inc., priority 2007, dated 2011).

Assay [1] has as its system SCF-stimulated UT-7 cells. To be noted: Homo sapiens.
Text: SCF and GM-CSF Stimulated UT7 Proliferation/Survival Assay:
The purpose of this assay is to test the general anti-proliferative/cytotoxic effect of small molecule compounds on SCF or GM-CSF-stimulated UT-7 cells. Preventing SCF stimulated proliferation/survival is consistent with an on-mechanism effect whereas inhibition of GM-CSF driven proliferation/survival is indicative of off-target effects. UT-7 is a factor dependent human megakaryoblastic leukemia cell line that can be grown in either IL-3, GM-CSF, EPO or SCF (these cells have been confirmed to carry wild type c-kit receptor). Cells are maintained in growth media (IMDM, 10% HI-FBS, 1×PGS, 1 ng/mL GM-CSF). […] Small molecule compounds are first diluted in 100% DMSO, then diluted 1:4 in RT assay media. […] The treated cells are incubated in a 37° C. humidified incubator with 5% CO2 for 3 days. The amount of ATP is then measured as a surrogate marker for cell viability. […] The amount of SCF or GM-CSF stimulated viable cells in the presence of compound compared with in the presence of vehicle alone (HI control) is calculated using the formula: % control (POC)=(cpd−average LO)/(average HI−average LO)*100. Data (consisting of POC and inhibitor concentration in μM) is fitted to a 4-parameter equation (y=A+((B−A)/(1+((x/C)^D))), where A is the minimum y (POC) value, B is the maximum y (POC), C is the x (cpd concentration) at the point of inflection and D is the slope factor) using a Levenburg-Marquardt non-linear regression algorithm.
In assay [2] the target is T1, c-kit kinase enzyme (Homo sapiens, UniProt P10721).
T1 construct: (catalytic domain, N-terminal GST tagged, unphosphorylated)
Nature of the assay: C-kit Homogeneous Time Resolved Fluorescent (HTRF) kinase assay. To be noted: c-kit catalytic domain, biotinylated Her-2 peptide substrate, ATP. It counts as biochemical. A general note: TR-FRET usually uses a lanthanide donor and a delayed reading to cut background.

[3] abbreviates: UT7, 72 h, read-out: UT7 Proliferation cell assay data.
The mark [4] stands for this setting: read-out: HTRF Fret enzyme assay data.

pIC50: −log10 of the molar value. Where two headings read alike, the source gives them in different places. Bounds are passed on as bounds.

T1 sequence (P10721 589-937 limits assumed): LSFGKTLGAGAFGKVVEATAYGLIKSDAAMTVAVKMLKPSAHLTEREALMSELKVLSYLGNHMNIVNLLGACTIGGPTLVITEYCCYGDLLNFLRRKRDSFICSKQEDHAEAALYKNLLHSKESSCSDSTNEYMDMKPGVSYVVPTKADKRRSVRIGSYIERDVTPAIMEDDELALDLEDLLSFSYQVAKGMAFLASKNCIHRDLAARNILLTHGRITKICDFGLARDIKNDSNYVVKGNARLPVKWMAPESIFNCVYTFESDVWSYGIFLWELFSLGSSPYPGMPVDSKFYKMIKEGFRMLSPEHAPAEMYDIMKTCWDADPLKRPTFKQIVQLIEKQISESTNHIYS

As to `Cc1ccn(-c2cccc(C#N)c2)c(=O)c1-c1ccc2nc(N)ncc2c1` [Example 9, 3-(3-(2-aminoquinazolin-6-yl)-4-methyl-2-oxopyridin-1(2H)-yl)benzonitrile], the pIC50 was 6.97 in assay [1] (setting [3]) and 7.05 in assay [2] (HTRF Fret enzyme assay data).
In the case of `Cc1ccn(-c2ccc(F)c(C(F)(F)F)c2)c(=O)c1-c1ccc2nc(N)ncc2c1` [Example 43, 3-(2-aminoquinazolin-6-yl)-1-(4-fluoro-3-(trifluoromethyl)phenyl)-4-methylpyridin-2(1H)-one], the pIC50 is 7.39 in assay [1] (setting [3]) and 7.67 in assay [2] (HTRF Fret enzyme assay data).
The corresponding values for `Cc1ccn(Cc2ccccc2)c(=O)c1-c1ccc2nc(N)ncc2c1` [Example 24, 3-(2-aminoquinazolin-6-yl)-1-benzyl-4-methylpyridin-2(1H)-one] are 7.89 and 8.22.
Consider `Cc1cc(C)cc(-n2ccc(C)c(-c3ccc4nc(N)ncc4c3)c2=O)c1` [Example 8, 3-(2-aminoquinazolin-6-yl)-1-(3,5-dimethylphenyl)-4-methylpyridin-2(1H)-one], for which the pIC50 in assay [1] (setting [3]) is 7.30; in assay [2] (HTRF Fret enzyme assay data), 7.79.
Consider `Cc1ccn(-c2ccc(F)c(Cl)c2)c(=O)c1-c1ccc2nc(N)ncc2c1` [Example 45, 3-(2-aminoquinazolin-6-yl)-1-(3-chloro-4-fluorophenyl)-4-methylpyridin-2(1H)-one], for which the results for the pIC50 in assay [1] (setting [3]) and in assay [2] (HTRF Fret enzyme assay data) were 7.40 and 7.00, respectively.
In the case of `Cc1ccn(-c2ccc(F)c(F)c2)c(=O)c1-c1ccc2nc(N)ncc2c1` [Example 39, 3-(2-aminoquinazolin-6-yl)-1-(3,4-difluorophenyl)-4-methylpyridin-2(1H)-one], the figures for the pIC50 in assay [1] (setting [3]) and in assay [2] (HTRF Fret enzyme assay data) were 7.20 and 7.32, respectively.
With `Cc1ccn(CCC(C)C)c(=O)c1-c1ccc2nc(N)ncc2c1` [Example 25, 3-(2-aminoquinazolin-6-yl)-1-isopentyl-4-methylpyridin-2(1H)-one], the values for the pIC50 in assay [1] (setting [3]) and in assay [2] (HTRF Fret enzyme assay data) were 7.08 and 7.74, respectively.
The corresponding values for `Cc1ccn(-c2ccc3c(ccn3-c3ccc4[nH]ccc4c3)c2)c(=O)c1-c1ccc2nc(N)ncc2c1` [Example 26, 3-(2-amino-6-quinazolinyl)-1-(1′H-1,5′-biindol-5-yl)-4-methyl-2(1H)-pyridinone] are 7.96 and 8.70.
Regarding `Cc1cc(-n2ccc(C)c(-c3ccc4nc(N)ncc4c3)c2=O)ccc1F` [Example 42, 3-(2-aminoquinazolin-6-yl)-1-(4-fluoro-3-methylphenyl)-4-methylpyridin-2(1H)-one], the pIC50 in assay [1] (setting [3]) was 7.74; in assay [2] (setting [4]) it was 7.85.
Take `Cc1ccn(-c2ccc(CN3CCOCC3)cc2)c(=O)c1-c1ccc2nc(N)ncc2c1` [Example 35, 3-(2-aminoquinazolin-6-yl)-4-methyl-1-(4-(morpholinomethyl)phenyl)pyridin-2(1H)-one]: the pIC50 in assay [1] (setting [3]) is 6.70; in assay [2] (HTRF Fret enzyme assay data) it was 7.51.
The corresponding values for `Cc1ccn(-c2ccc(Cl)c(Cl)c2)c(=O)c1-c1ccc2nc(N)ncc2c1` [Example 40, 3-(2-aminoquinazolin-6-yl)-1-(3,4-dichlorophenyl)-4-methylpyridin-2(1H)-one] are 7.74 and 7.70.
As to `Cc1ccn(-c2cccc(OC(F)(F)F)c2)c(=O)c1-c1ccc2nc(N)ncc2c1` [Example 14, 3-(2-amino-6-quinazolinyl)-4-methyl-1-(3-((trifluoromethyl)oxy)phenyl)-2(1H)-pyridinone], the pIC50 is 7.79 in assay [1] (setting [3]) and 8.39 in assay [2] (HTRF Fret enzyme assay data).
Take `Cc1ccn(-c2ccc(C(C)(C)C)cc2)c(=O)c1-c1ccc2nc(N)ncc2c1` [Example 12, 3-(2-amino-6-quinazolinyl)-1-(4-(1,1-dimethylethyl)phenyl)-4-methyl-2(1H)-pyridinone]: the pIC50 in assay [1] (setting [3]) is 7.78; in assay [2] (HTRF Fret enzyme assay data) it was 8.69.
For `Cc1ccn(CCC(C)(C)C)c(=O)c1-c1ccc2nc(N)ncc2c1` [Example 57, 3-(2-aminoquinazolin-6-yl)-1-(3,3-dimethylbutyl)-4-methylpyridin-2(1H)-one], the results for the pIC50 in assay [1] (setting [3]) and in assay [2] (HTRF Fret enzyme assay data) were 7.37 and 7.79, respectively.
As for `Cc1ccn(-c2ccc3[nH]c(C(F)(F)F)nc3c2)c(=O)c1-c1ccc2nc(N)ncc2c1` [Example 10, 3-(2-aminoquinazolin-6-yl)-4-methyl-1-(2-(trifluoromethyl)-1H-benzo[d]imidazol-5-yl)pyridin-2(1H)-one], the figures for the pIC50 in assay [1] (setting [3]) and in assay [2] (HTRF Fret enzyme assay data) were 6.72 and 7.46, respectively.
Turning to `Cc1ccn(-c2ccc(-n3cccn3)cc2)c(=O)c1-c1ccc2nc(N)ncc2c1` [Example 38, 1-(4-(1H-pyrazol-1-yl)phenyl)-3-(2-aminoquinazolin-6-yl)-4-methylpyridin-2(1H)-one], the pIC50 in assay [1] (setting [3]) was 7.74; in assay [2] (setting [4]), 8.00.
Regarding `Cc1ccc(-n2ccc(C)c(-c3ccc4nc(N)ncc4c3)c2=O)cc1Cl` [Example 41, 3-(2-aminoquinazolin-6-yl)-1-(3-chloro-4-methylphenyl)-4-methylpyridin-2(1H)-one], the pIC50 in assay [1] (setting [3]) was 7.92; in assay [2] (HTRF Fret enzyme assay data) it was 8.09.
Take `Cc1ccn(-c2ccc(-n3cccc3)cc2)c(=O)c1-c1ccc2nc(N)ncc2c1` [Example 5, 1-(4-(1H-pyrrol-1-yl)phenyl)-3-(2-aminoquinazolin-6-yl)-4-methylpyridin-2(1H)-one]: the pIC50 in assay [1] (setting [3]) was 8.32; in assay [1] (UT7, read-out: average IC50 value in the SCF stimulated UT7 proliferation and survival assay) it was not below 6.00; in assay [2] (HTRF Fret enzyme assay data), 8.65.
For the molecule `Cc1ccn(-c2ccc(C(F)(F)F)cc2)c(=O)c1-c1ccc2nc(N)ncc2c1` [Example 30, 3-(2-aminoquinazolin-6-yl)-4-methyl-1-(4-(trifluoromethyl)phenyl)pyridin-2(1H)-one], the pIC50 was 7.74 in assay [1] (setting [3]) and 8.10 in assay [2] (HTRF Fret enzyme assay data).
